Test results published in BindingDB's records for doi:10.1016/j.ejmech.2021.113704 (Fudan University, 2021).

Experiment: Agonist activity at RORgammat in mouse CD4+ T cells assessed as induction of Th17 cells differentiation by measuring increase in IL17 production measured after 4 days by intracellular staining based flow cytometry

For `CCCN(Cc1ccc(NC(=O)Cc2ccc(S(C)(=O)=O)cc2)cc1Cl)CC1CCCCC1`, the EC50 was 37 nM.
